Test results taken from patent US4189426A, “Recombinant hormonal compositions and method” (Hoffmann-La Roche, Inc., priority 1978, dated 1980).
No end group written: not given here.

What was measured:
[1] = conformational, immunological and biological activity of Example 8 and 9 recombinants compared with native hormone; settings: Examples 8 and 9, present tense, no data
pigeon crop-sac = experiment: local crop-sac assay in the pigeon (prolactin / lactogenic activity); assay type: in vivo; settings: Table 10; total dose 120 μg; mean ± SEM, number of birds in parentheses
Protocol: The growth-promoting activity of PL-HGH, the unpurified recombinant of Example 1 (fraction IV), [Cys(Cam)^53 -HGH-(1-134)], [Cys(Cam)^165, 182, 189 -HGH-(141-191)] and saline control were determined by the rat tibia test of Greenspan et al, Endocrinology 45, 455 (1949) and by the local crop-sac assay in the pigeon according to Lyons, Proc. Soc. Exp. Biol. 35, 645 (1937) and Nicoll, Endocrinology 80, 641 (1967). Amino acid compositions of acid and carboxypeptidase hydrolysates were determined in an automatic amino acid analyzer (model 120B, Beckman Instruments). For the analysis of tryptophan, the methanesulfonic acid hydrolysates were used. Amino-terminal residue and sequence analyses were preformed by the dansyl-Edman procedure. Isoelectric focusing was carried out in 8 M urea. Prolactin activity was estimated by the pigeon crop-sac assay. Microcomplement fixation experiments were performed with rabbit antisera to HCS. The gel-double-diffusion technique of Ouchterlony was done using 1% agar in 0.01 M phosphate buffer of pH 7.5. Exclusion chromatography of the purified fragments or the recombinant was performed on a Sephadex G-100 column (1.5×60 cm; V0 =35 ml) in 10 mM NH4 HCO3 (pH 8.4) at 21°. Circular dichroism (CD) spectra were obtained by a spectropolarimeter (Cary model 60) equipped with a circular dichroism attachment (model 6002). Microcomplement fixation was performed with the guinea pig antiserum to ovine prolactin. The gel double-diffusion technique of Ouchterlony was carried out with 1% agar in 10 mM phosphate buffer (pH 7.5). The prolactin activity was estimated by the local crop-sac assay in the pigeon.

antiserum to prolactin = experiment: gel double-diffusion technique of Ouchterlony; assay type: binding
Protocol: Exclusion chromatography of the purified fragments or the recombinant was performed on a Sephadex G-100 column (1.5×60 cm; V0 =35 ml) in 10 mM NH4 HCO3 (pH 8.4) at 21°. Circular dichroism (CD) spectra were obtained by a spectropolarimeter (Cary model 60) equipped with a circular dichroism attachment (model 6002). Microcomplement fixation was performed with the guinea pig antiserum to ovine prolactin. The gel double-diffusion technique of Ouchterlony was carried out with 1% agar in 10 mM phosphate buffer (pH 7.5). The prolactin activity was estimated by the local crop-sac assay in the pigeon.

[2] = Birk and Li, Proc. Natl. Acad. Sci. U.S.A. 75(5), 2155 (1978); cited from earlier work

Substance | conformational, immunological and biological activity, in words [1] | Response (dry mucosal weight) (pigeon crop-sac) | precipitin line (antiserum to prolactin) | biological activity, in words [2]
[Cys(Cam)^53 ]-HGH-(1-134)+(Lys^135,136,138, Glu^137,139, Nle^170, Ala^165,182,189)-HGH-(135-191) | analogous conformational, immunological and biological activity as native HGH |  |  | 
PRL-(1-53): NH2-terminal portion, residues 1-53, of ovine prolactin from fibrinolysin digestion (TPVCPNGPGNCQVSLRDLFDRAVMVSHYIHNLSSEMFNEFDKRYAQGKGFITM; ends and bridges not checked; cysteine pairing not given here; UniProt P01240 31-83, looked up, fragment) |  | 10.1 ± 2.6 mg | neither fragment gave a precipitin line | inactive
